Data set [1] concerns bovine REC. As to the kind of experiment: REC proliferation assay (MTS). It counts as cell-based. The note with it: growth factors 10 ng/mL each. The procedure: REC proliferation and survival assays. 96-well plates were coated with various amounts of TN-C or vehicle. 5×10^3 cells were added to each triplicate well in low-serum REC medium with various amounts of growth factors (0.5% FCS incomplete BREC medium containing 10 ng/ml of human IGF-I, FGF-2, VEGF, PlGF and PDGF-BB [R&D Systems Inc., Minneapolis, Minn.]). Cell numbers were determined on days 4–7 using the MTS cell proliferation assay (Promega Corp.) according to manufacturer's instructions. Survival was measured in the same way using high glucose (30 mM) or chemical hypoxia (2 mM sodium azide) or serum-free medium to induce cell death. Cell numbers were determined on days 4–7 using MTS assay (Promega).

Data set [2] has as its system bovine REC. As to the kind of experiment: Secondary sprouting assay on reconstituted basement membrane matrix (MTS). Format: cell-based. The procedure:
(§1) In vitro MATRIGEL™ biological cell culture substrate assay of capillary-like tube formation and secondary sprouting. […] Briefly, 50 μL of reconstituted basement membrane matrix from mouse EHS tumor (BD or GFR MATRIGEL™ biological cell culture substrate; Becton Dickinson Labware, Bedford, Mass.) were dispensed with frozen pipettes into each well of a previously frozen, sterile 96-well plate sitting on wet ice and allowed to solidify for 1 hr at room temperature or 37° C. Approximately 5×10^4 or 7.5×10^4 REC in a 100 μL volume were seeded into each triplicate well. Human recombinant or purified growth factors were added to a final concentration of 10 ng/mL (or as noted) in 0.5% FCS incomplete BREC medium. Capillary-like tube structures formed by REC on reconstituted basement membrane matrix were photographed at various intervals ranging from 12–72 hr; pictures were scanned, digitized and analyzed using image-processing software.
For the secondary sprouting assay, cells on reconstituted basement membrane matrix were seeded as above but incubated in 0.5% FCS incomplete BREC medium without any growth factors for 3 days, allowing for tube formation and collapse. On day 3, human recombinant or purified growth factors were added to a final concentration of 10 ng/mL (or as noted) in low-serum incomplete BREC medium and incubated for another 5–6 days. Digital photographs were obtained with a Kodak MDS 100 camera attached to a Leitz DM IL inverted microscope. Digitized images obtained with a Kodak MDS 100 video camera were stored on compact discs and quantified with NIH Image 1.62 software. The number of living cells in the sprouting colonies were determined using the MTS cell proliferation assay.
A good correlation was observed between the spherical volume and the number of live cells in secondary sprouting colonies (not shown). Since the latter is an easy parameter to test by using the MTS assay, it was adopted as a faster method for studying the effect of various agents on secondary sprouting.

Data set [3] relates to bovine REC. As to the kind of experiment: Migration (wound healing) assay. Format: cell-based. The settings on record: growth factors 10 ng/mL each. The protocol:
Migration assay. REC migration rates were examined in a wound healing assay, where cells migrate over time into the scrape wound in a monolayer. Briefly, cells were seeded in 24-well plates and allowed to reach confluence in growth medium. Prior to growth factor treatment, cells were serum-starved overnight in incomplete BREC medium with 0.5% FCS. All monolayers within an experiment were wounded with a single sterile wood stick of constant diameter, to ensure uniformity in the wound areas among different treatments. Wounded monolayers were then rinsed with low-serum medium to remove detached cells and treated with various combinations of human growth factors at 10 ng/mL each. On day 7, cells were rinsed 3× with PBS and fixed with methanol for 15 min, rehydrated with dH2O and stained with Meyer's hematoxylin for 5 min, followed by destaining with dH2O. All wells were photographed with a 4× or 10× objective using a Kodak MDS 100 digital camera attached to a Leitz DM IL inverted microscope. The original wound area was measured at 0 hr and used as a baseline for comparison to the treated wells at the conclusion of the experiment. The number of cells migrated into the wound was determined. Migrating cell counting was automated using the AAB (Advanced American Biotechnology, Fullerton, Calif.) software. Data were calculated and statistically analyzed (Spirin K S et al., Basement membrane and growth factor gene expression in normal and diabetic human retinas, Curr. Eye Res. 18:490–499 [1999]) relative to control cultures that received the same concentrations of bovine serum albumin instead of growth factors and/or inhibitor, compared to vehicle instead of inhibitor after wounding. Inhibitors were added 30 min before growth factors.

A further data set deals with REC. As to the kind of experiment: Capillary-like tube formation on MATRIGEL
It counts as cell-based, bovine. The note with it: growth factors 10 ng/mL each. The procedure:
as §1

The next data set relates to telomerase. As to the kind of experiment: Telomerase assay (TRAP) in cultured endothelial cells. Format: cell-based. The text has this: Cells in secondary sprouting colonies contained high telomerase activity (FIG. 10, 3rd column) when compared to the parental cells (1st column), as measured by telomerase assay (TRAP; Yang, J., et al., Stem and germline cells are among the only cells in postnatal tissues that continue to express telomerase activity, J. Biol. Chem. 274(37):26141–26148 [1999]; Hsiao, R. et al., Mature endothelial cells express very low levels of telomerase and it's lost during the first five divisions in vitro, Anticancer Res 17:827–832 [1997]; Kolquist, K A et al., Nature Genet 19:182–186 [1998] as reviewed by Chang E et al. J. Invest. Dermatol. 118:752–8. [2002]). This enzyme activity is either very low or absent in aging or differentiated cells, but it is high in precursors. (Armstrong et al., mTert expression correlates with telomerase activity during the differentiation of murine embryonic stem cells. Mech Dev. 2000. 97(1–2):109–116). Telomerase activity is also high in invasive and highly proliferative cancers but not in normal adult cells. (Blasco et al., Telomeres and telomerase. Genes & Development. 1999. 13:2353–2359).

For data set [4], the system named is secondary sprouting colonies. As to the kind of experiment: Marker expression in secondary sprouting colonies (RT-PCR, immunofluorescence). Format: cell-based. The note with it: treatment of secondary sprouting colonies. The protocol: Detection of markers expressed by cells selected from secondary sprouting colonies was carried out using reverse-transcriptase polymerase chain reaction (RT-PCR) with RNA derived from secondary sprouting cells, which was compared to RNA derived from non-sprouting cells. The RT-PCR method allows the detection of low-levels of message coding for the above-mentioned markers. Following manufacturer's instructions, RNA isolation was done with a QiaShredder kit (Qiagen) on isolated sprouts (scooped out of MATRIGEL™ biological cell culture substrate) followed by use of the RNAeasy kit (Qiagen), and the RT-reaction was conducted using a SMART cDNA kit (Clontech) and the RT-PCR protocol, as described in Hamdi et al., Biochem Biophys Res Commun. 295(3):668–72 [Jul. 19, 2002] but using approx. 50 ng of cDNA instead of genomic DNA per PCR reaction. The following primers were used: […]

Entries after “also recorded” stand apart in the source; their conditions may differ.

In the case of “PDGF-BB: platelet derived growth factor (PDGF)-BB, human recombinant or purified angiogenic growth factor”, the “effect of growth factors on REC proliferation” value in the data set on bovine REC [1] was “potent stimulator”. Besides, the “morphology of sprouting colonies after growth factor treatment” value with bovine REC [2] (10 ng/mL) is “shorter and thicker sprouts”. For the same substance, in the data set on bovine REC [2] (10 ng/mL, 0.5% FCS medium), the “effect of growth factors on secondary sprouting (live cell number)” value is “potently stimulated; also recorded: most potent single growth factor; also recorded: potent stimulator; also recorded: dramatic increase; also recorded: greatly enhanced; also recorded: the most potent”. Further, the “additivity of effect on secondary sprouting with individual growth factors” value in the data set on bovine REC [2] (PDGF-BB 1 ng/mL ± VEGF, IGF-I, PlGF or FGF-2 10 ng/mL, added day 3) is listed as “not additive or synergistic; also recorded: not additive”. The “effect on secondary sprouting when added after tube collapse” value in the data set on bovine REC [2] (growth factor added after the tubes had collapsed (day 3)) is “again increased secondary sprouting”. Moreover, the “stimulation of secondary sprouting (fold, on average)” value with bovine REC [2] (growth factors, live cells by MTS) is listed as “three-fold”. The “additivity of effect on secondary sprouting with combinations of three growth factors” value with bovine REC [2] (three growth factors 10 ng/mL each plus fourth factor 0–100 ng/mL, added day 3) is listed as “potentiated their responses; also recorded: additive”. Further, the “effect of growth factors on REC migration” value with bovine REC [3] is on record as “potent stimulator”. In addition, in the data set on REC, the “effect of growth factors on tube formation” value is reported as “pro-collapsing factor”. Moreover, the “telomerase activity of differentiated endothelial cells” value in the data set with telomerase (differentiative culture conditions (plastic, no MATRIGEL)) is listed as “opposite effect”. The “telomerase activity of sprouting colonies” value in the data set with telomerase (expansive culture conditions (MATRIGEL, low serum medium)) is listed as “increases the activity of telomerase”. Also, the “expression of AC133, CD166, AML-1, uPA, tPA” value in data set [4] is “increased the expression”.

(Values after patent publication US7101707B2, “Secondary sprouting for isolation and expansion of endothelial sprout cells and endothelial precursor cells from a mixed population and for screening substances” (Cedars-Sinai Medical Center, priority 2002, dated 2006).)
